Assay results published in ChEMBL document CHEMBL5291721, “A preclinical secondary pharmacology resource illuminates target-adverse drug reaction associations of marketed drugs” (Nat Commun, 2023).

Tests used:
[1] = biological target: Gamma-aminobutyric acid receptor subunit alpha-1 (Rattus norvegicus, UniProt P62813); type: functional
Estrogen receptor = biological target: T1, Estrogen receptor (Homo sapiens, UniProt P03372)
T1 sequence (P03372 whole entry): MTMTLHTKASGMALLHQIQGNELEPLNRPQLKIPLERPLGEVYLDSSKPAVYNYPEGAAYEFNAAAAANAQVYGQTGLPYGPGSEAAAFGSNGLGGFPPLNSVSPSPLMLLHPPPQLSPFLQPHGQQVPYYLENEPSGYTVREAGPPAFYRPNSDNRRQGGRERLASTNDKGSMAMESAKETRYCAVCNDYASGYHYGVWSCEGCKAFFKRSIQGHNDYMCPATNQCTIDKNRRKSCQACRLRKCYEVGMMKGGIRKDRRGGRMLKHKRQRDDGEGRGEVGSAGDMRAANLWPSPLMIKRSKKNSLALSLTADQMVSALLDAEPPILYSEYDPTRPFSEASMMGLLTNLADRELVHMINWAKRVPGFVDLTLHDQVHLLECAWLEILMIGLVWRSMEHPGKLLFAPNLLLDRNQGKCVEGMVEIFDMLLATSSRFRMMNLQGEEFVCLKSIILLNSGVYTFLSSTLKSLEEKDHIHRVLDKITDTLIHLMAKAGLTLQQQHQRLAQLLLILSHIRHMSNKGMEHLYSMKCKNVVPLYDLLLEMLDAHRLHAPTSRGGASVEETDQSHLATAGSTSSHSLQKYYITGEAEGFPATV

[2] = biological target: cGMP-inhibited 3',5'-cyclic phosphodiesterase 3A (Homo sapiens, UniProt Q14432); type: functional
Sequence of cGMP-inhibited 3',5'-cyclic phosphodiesterase 3A (Q14432 whole entry): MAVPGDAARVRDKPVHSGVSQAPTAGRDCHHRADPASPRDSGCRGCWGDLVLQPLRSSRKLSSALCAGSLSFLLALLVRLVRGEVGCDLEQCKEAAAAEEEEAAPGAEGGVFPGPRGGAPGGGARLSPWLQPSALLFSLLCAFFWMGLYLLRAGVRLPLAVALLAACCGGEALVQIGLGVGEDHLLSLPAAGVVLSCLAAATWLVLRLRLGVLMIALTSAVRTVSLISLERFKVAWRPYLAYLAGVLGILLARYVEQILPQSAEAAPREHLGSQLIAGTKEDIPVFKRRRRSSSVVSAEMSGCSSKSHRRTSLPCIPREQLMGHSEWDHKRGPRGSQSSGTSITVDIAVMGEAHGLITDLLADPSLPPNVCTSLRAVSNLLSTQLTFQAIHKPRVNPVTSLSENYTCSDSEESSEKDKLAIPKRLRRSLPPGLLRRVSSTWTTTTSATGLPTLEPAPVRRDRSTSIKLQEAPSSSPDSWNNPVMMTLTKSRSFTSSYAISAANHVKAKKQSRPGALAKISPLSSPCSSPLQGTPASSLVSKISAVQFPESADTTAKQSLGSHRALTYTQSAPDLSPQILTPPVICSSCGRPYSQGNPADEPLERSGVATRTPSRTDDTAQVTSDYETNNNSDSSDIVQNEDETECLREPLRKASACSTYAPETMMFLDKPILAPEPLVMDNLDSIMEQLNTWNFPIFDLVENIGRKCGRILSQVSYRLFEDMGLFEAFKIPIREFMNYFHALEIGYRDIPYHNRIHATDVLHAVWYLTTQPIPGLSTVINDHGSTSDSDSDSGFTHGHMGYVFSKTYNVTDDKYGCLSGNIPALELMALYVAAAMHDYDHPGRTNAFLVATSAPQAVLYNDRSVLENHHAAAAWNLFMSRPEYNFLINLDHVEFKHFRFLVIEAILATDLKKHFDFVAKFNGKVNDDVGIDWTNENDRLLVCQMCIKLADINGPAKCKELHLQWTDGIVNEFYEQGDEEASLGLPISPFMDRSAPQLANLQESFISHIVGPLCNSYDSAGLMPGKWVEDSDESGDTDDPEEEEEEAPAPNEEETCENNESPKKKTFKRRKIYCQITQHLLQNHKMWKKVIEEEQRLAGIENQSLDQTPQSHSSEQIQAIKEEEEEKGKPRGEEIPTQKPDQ

[3] = biological target: T2, Alpha-2B adrenergic receptor (Homo sapiens, UniProt P18089)
T2 sequence (P18089 whole entry): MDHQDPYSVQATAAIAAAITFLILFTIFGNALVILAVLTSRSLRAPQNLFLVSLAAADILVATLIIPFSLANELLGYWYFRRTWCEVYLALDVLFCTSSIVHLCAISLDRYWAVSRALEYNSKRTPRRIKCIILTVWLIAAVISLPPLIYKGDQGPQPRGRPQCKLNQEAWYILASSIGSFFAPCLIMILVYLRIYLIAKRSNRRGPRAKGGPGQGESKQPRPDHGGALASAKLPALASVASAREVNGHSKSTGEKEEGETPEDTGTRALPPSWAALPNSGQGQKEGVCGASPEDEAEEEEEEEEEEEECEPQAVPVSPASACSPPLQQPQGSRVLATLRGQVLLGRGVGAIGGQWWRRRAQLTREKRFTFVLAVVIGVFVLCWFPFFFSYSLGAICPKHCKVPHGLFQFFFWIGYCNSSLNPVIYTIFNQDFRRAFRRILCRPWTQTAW

[4] = biological target: 3',5'-cyclic-AMP phosphodiesterase 4D (Homo sapiens, UniProt Q08499); type: functional
Sequence of 3',5'-cyclic-AMP phosphodiesterase 4D (Q08499 whole entry): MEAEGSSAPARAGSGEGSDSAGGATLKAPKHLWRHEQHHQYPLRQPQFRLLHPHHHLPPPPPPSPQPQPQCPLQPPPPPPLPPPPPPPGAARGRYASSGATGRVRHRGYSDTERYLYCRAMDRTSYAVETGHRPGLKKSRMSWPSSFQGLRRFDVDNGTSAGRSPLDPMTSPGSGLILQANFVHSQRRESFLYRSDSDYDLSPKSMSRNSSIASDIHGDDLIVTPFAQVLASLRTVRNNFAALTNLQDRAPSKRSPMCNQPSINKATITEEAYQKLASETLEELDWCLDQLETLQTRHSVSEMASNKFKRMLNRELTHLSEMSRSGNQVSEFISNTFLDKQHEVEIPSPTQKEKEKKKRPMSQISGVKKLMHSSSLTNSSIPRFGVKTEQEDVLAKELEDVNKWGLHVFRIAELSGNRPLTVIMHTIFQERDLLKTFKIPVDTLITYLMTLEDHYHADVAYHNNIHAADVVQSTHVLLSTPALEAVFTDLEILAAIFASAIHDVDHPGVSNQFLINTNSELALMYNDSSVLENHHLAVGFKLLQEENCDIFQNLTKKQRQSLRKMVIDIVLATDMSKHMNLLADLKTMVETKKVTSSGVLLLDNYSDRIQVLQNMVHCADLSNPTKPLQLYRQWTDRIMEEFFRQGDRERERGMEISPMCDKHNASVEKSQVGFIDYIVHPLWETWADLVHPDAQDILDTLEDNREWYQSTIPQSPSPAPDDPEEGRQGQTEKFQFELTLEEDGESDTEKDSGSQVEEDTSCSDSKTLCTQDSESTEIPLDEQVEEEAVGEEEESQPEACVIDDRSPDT

Melanocortin receptor 3 = Melanocortin receptor 3 (Homo sapiens, UniProt P41968)
Sequence of Melanocortin receptor 3 (P41968 whole entry): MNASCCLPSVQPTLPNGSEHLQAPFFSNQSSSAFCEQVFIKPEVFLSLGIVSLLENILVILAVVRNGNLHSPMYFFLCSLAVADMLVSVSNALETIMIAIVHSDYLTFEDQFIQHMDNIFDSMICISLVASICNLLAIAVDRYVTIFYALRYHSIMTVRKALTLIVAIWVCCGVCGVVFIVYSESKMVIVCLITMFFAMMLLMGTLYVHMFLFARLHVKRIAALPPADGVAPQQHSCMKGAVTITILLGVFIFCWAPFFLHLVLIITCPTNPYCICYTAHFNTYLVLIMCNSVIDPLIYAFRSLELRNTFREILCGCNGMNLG

[5] = biological target: T3, 5-hydroxytryptamine receptor 1A (Homo sapiens, UniProt P08908); type: functional, cell-based
T3 sequence (P08908 whole entry): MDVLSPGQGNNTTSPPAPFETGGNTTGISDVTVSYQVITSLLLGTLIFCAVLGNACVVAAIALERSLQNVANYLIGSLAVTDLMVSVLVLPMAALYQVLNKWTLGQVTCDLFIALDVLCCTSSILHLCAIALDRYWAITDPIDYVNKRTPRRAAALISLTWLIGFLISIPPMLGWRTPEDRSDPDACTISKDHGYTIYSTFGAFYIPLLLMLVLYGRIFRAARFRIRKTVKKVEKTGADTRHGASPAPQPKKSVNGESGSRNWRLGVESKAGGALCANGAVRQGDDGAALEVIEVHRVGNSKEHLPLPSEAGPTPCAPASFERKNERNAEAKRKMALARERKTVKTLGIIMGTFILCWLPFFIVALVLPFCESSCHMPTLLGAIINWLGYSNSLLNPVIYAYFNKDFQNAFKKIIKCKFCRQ

[6] = biological target: Glutamate receptor ionotropic, NMDA 1 (Rattus norvegicus, UniProt P35439)
[7] = biological target: T4, 5-hydroxytryptamine receptor 2C (Homo sapiens, UniProt P28335)
T4 sequence (P28335 whole entry): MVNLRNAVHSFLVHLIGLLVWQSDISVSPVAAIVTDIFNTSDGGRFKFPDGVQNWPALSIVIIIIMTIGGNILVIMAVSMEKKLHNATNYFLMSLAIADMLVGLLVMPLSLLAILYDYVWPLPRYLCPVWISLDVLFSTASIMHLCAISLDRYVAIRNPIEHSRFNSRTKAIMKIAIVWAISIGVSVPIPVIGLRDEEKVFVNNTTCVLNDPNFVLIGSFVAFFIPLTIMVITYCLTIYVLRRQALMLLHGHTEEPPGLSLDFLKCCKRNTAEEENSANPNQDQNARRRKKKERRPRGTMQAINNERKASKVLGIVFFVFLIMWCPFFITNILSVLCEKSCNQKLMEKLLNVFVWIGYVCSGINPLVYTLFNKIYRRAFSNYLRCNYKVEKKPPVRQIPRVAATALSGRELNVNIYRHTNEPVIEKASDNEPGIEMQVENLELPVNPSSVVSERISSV

[8] = biological target: Delta-type opioid receptor (Homo sapiens, UniProt P41143)
Sequence of Delta-type opioid receptor (P41143 whole entry): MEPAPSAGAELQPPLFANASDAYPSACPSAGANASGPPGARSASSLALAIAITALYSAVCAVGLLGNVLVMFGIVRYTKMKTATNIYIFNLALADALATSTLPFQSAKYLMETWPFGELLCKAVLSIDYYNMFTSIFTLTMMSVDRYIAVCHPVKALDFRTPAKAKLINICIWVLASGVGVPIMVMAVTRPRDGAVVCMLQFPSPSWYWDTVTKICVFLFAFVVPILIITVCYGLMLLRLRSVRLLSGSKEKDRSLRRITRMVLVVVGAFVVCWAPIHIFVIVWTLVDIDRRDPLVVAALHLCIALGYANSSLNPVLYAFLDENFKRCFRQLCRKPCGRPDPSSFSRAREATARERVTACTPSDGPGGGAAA

Histamine H1 receptor = Histamine H1 receptor (Homo sapiens, UniProt P35367)
Sequence of Histamine H1 receptor (P35367 whole entry): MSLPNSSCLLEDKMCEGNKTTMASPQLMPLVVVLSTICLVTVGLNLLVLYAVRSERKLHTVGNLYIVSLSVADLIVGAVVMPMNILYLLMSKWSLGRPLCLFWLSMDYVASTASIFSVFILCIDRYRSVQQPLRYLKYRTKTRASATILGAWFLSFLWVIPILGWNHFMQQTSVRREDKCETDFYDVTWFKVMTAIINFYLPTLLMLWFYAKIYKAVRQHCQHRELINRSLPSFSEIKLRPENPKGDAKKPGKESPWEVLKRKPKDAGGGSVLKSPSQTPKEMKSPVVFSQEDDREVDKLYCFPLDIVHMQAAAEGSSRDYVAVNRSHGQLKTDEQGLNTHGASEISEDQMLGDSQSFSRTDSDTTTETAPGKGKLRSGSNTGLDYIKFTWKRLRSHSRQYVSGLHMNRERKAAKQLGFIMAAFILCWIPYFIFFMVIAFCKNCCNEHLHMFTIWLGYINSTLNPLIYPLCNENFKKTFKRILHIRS

Histamine H3 receptor = Histamine H3 receptor (Homo sapiens, UniProt Q9Y5N1)
Sequence of Histamine H3 receptor (Q9Y5N1 whole entry): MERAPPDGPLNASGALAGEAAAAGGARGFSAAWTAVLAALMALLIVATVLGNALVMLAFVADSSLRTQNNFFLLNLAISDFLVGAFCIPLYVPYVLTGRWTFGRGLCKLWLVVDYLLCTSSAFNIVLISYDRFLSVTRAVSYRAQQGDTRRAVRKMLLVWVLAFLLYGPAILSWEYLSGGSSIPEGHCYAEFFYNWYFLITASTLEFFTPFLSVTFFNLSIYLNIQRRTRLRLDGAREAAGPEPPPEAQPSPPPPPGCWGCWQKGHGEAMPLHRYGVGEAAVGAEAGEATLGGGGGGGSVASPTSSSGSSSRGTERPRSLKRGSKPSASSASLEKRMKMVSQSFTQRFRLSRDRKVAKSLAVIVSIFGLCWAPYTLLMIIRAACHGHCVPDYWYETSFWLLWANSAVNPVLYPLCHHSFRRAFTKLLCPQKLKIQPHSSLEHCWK

Adenosine receptor A2a = Adenosine receptor A2a (Homo sapiens, UniProt P29274)
Sequence of Adenosine receptor A2a (P29274 whole entry): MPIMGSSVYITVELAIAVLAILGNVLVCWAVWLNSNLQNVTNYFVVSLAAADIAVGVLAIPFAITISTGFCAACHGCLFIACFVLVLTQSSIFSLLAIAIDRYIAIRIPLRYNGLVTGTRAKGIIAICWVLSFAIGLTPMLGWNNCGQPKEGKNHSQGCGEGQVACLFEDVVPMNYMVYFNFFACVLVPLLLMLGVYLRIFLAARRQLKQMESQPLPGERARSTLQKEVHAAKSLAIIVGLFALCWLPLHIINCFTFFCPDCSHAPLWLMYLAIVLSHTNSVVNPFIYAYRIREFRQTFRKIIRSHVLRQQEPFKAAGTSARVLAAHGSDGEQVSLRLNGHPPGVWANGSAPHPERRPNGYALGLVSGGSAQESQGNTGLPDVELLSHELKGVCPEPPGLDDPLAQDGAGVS

Measured: AC50
Also: assay procedure not described here.

Sequence of Gamma-aminobutyric acid receptor subunit alpha-1 (P62813 whole entry): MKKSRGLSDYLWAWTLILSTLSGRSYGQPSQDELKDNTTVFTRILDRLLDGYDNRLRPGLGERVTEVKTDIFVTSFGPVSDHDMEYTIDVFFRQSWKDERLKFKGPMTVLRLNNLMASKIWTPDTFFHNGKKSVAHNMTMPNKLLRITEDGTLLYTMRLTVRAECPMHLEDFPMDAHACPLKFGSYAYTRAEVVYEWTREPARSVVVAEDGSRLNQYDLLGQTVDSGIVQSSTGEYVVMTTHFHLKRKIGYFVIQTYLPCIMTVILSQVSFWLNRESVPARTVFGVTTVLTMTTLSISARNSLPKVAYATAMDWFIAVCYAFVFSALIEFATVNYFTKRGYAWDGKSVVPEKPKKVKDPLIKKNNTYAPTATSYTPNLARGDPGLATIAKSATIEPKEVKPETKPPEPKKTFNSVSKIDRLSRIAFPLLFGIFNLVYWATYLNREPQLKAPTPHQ

CN1C(=O)C(O)N=C(c2ccccc2Cl)c2cc(Cl)ccc21 (configuration not stated) [LORMETAZEPAM]
0.0014 µM: [1]
> 10 µM: [2]
5.6 µM: [4]
> 30 µM: all other assays above

CCN1CCN(C(=O)N[C@@H](C(=O)N[C@@H]2C(=O)N3C(C(=O)O)=C(CSc4nnnn4C)CS[C@H]23)c2ccc(O)cc2)C(=O)C1=O [CEFOPERAZONE]
9.5 µM: [2]
> 30 µM: all other assays above

CCOC(=O)[C@H](CCc1ccccc1)N[C@@H](C)C(=O)N1C(=O)N(C)C[C@H]1C(=O)O
> 30 µM: all assays above

CC(C)=CCC/C(C)=C/C=C/C(C)=C/C=C/C(C)=C/C=C/C=C(C)/C=C/C=C(C)/C=C/C=C(\C)CCC=C(C)C [LYCOPENE]
> 10 µM: Estrogen receptor
> 30 µM: all other assays above

C=CCN1CCCC1CNC(=O)c1cc(S(N)(=O)=O)cc(OC)c1OC (configuration not stated) [VERALIPRIDE]
23 µM: Histamine H3 receptor
> 10 µM: [2]
3.2 µM: [3]
> 30 µM: all other assays above

CC(C)OC(=O)CCC/C=C\C[C@@H]1[C@@H](CC[C@@H](O)CCc2ccccc2)[C@H](O)C[C@@H]1O [LATANOPROST]
> 30 µM: all assays above

CN1C(=O)C(O)N=C(c2ccccc2)c2cc(Cl)ccc21 (configuration not stated) [TEMAZEPAM]
> 10 µM: [3] | [5] | [6] | Histamine H1 receptor | Histamine H3 receptor
3 µM: [2]
0.044 µM: [1]
> 30 µM: all other assays above

COC(=O)C1=C(C)NC(C)=C(C(=O)OC2CCCN(Cc3ccccc3)C2)C1c1cccc([N+](=O)[O-])c1 (configuration not stated) [BENIDIPINE]
27 µM: Histamine H1 receptor
4.2 µM: [2]
7.1 µM: [4]
> 30 µM: all other assays above

COc1cc2c(N)nc(N3CCN(C(=O)OCC(C)(C)O)CC3)nc2c(OC)c1OC [TRIMAZOSIN]
> 30 µM: all assays above
